Reference: patent publication EP0696280B1, “SUBSTITUTED PYRROLIDIN-3-YL-ALKYL-PIPERIDINES USEFUL AS TACHYKININ ANTAGONISTS” (MERRELL PHARMACEUTICALS INC., priority 1993, dated 1994)

How the values were obtained:
NK2 receptor = target: T1, NK2 receptor (Bos taurus, UniProt P05363); experiment: Antagonism of NK2 receptor mediated (NKA-induced) phosphatidylinositol turnover in SKLKB82#3 cells; format: cell-based; settings: Schild analysis, NKA in SKLKB82#3 cells; mean (95% confidence limits), 2-3 experiments
T1 construct: expressed in transfected cells; host or cells: SKLKB82#3 cells
T1 sequence (P05363 1-384): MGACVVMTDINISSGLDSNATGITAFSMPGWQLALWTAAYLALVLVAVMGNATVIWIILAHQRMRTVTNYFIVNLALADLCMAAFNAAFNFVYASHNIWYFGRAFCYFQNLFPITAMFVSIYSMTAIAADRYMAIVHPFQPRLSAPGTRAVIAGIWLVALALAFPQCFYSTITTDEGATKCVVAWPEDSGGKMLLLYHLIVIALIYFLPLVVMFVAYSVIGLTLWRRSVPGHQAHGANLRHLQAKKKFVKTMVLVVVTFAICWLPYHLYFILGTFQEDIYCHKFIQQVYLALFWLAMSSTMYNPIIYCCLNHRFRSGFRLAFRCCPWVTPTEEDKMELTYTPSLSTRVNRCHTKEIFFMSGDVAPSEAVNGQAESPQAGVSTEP
Method: (§1) Tachykinin-mediated inositol phosphate accumulation was measured in UCll or SKLKB82#3 cells in the presence and absence of NK1 or NK2 receptor antagonists, respectively. Tissues were incubated in Krebs-Henseleit buffer at 37°C with 95% O2-5% CO2 gassing. Tissues were then incubated with fresh buffer containing 100 µCi of myo-[2-^3H(N)] inositol at 37°C for 60 min with gentle gassing. After washing twice at room temperature in 5 ml buffer containing 10 mM LiCl, tissues were incubated for 30 min at room temperature with a buffer change at 15 min. Buffer was removed and Krebs-Henseleit buffer (containing 40 µg/ml bacitracin, 4 µg/ml each of leupeptin and chymostatin, 0.1% bovine serum albumin and 10 mM each of thiorphan and LiCl) added. After 15 min, SP was added to UCll cells or NKA to SKLKB82#3 cells at various concentrations to start the reaction. After incubation for 60 min at room temperature the reaction was terminated by addition of 930 µl chloroform: methanol (1:2 by volume) to each tube, followed by 310 µl chloroform and 310 µl doubly distilled water. Samples were vortexed, centrifuged, and 0.9 ml of the aqueous (top) phase removed and added to 2 ml ddH2O. The mixture was vortexed and loaded onto a 50% Bio-Rad AG 1-X8 (formate form, 100-200 mesh) exchange column (Bio-Rad Laboratories, Hercules, CA). The columns were washed, in order, with: 1) 10 ml doubly distilled water, 2) 5 ml of 5 mM disodium tetraborate/60 mM sodium formate, and 3) 5 ml of 1 M ammonium formate/0.1 M formic acid. The third elution was collected and 1 ml counted in 7 ml scintillation fluid. A 50 µl aliquot of the organic (bottom) phase was removed, dried in a scintillation vial and counted in 7 ml scintillation fluid.
(§2) The ratio of DPM in the aqueous phase aliquot (total inositol phosphates) to the DPM in the 50 µl organic phase aliquot (total [^3H]inositol incorporated) was calculated for each sample. Data are expressed as a percent of agonist-induced accumulation of [^3H]-inositol phosphates over basal levels. The ratios in the presence of test compound and/or standards were compared to the ratios for control samples (i.e. no stimulating agonist). Dose-response graphs were constructed and the abilities of the test compounds to inhibit tachykinin-induced phosphatidylinositol turnover determined with the aid of a computer program. […] Data is expressed as percent stimulation of total inositol phosphate accumulation over basal levels and normalized to the maximum response produced by SP. […] Schild analysis is performed using dose response curves (such as those presented in Figures 1a and 1b) to obtain a value indicative of the strength of a competitive antagonist and is expressed as the pA2, which is the negative logarithm of the molar concentration of antagonist which reduces the effect of a dose of agonist to one-half of that expected at the dose of agonist. […]
(§3) Values are mean (95% confidence limits) derived from Schild analysis of 2-3 experiments per compound per receptor.

NK1 receptor = target: T2, NK1 receptor (Homo sapiens, UniProt P25103); experiment: Antagonism of NK1 receptor mediated (SP-induced) phosphatidylinositol turnover in UC11 cells; format: cell-based; settings: Schild analysis, SP in UC11 cells; mean (95% confidence limits), 2-3 experiments
T2 construct: endogenous in cells; host or cells: UC11 cells
Method: as §1, §2, §3

T2 sequence (P25103 whole entry): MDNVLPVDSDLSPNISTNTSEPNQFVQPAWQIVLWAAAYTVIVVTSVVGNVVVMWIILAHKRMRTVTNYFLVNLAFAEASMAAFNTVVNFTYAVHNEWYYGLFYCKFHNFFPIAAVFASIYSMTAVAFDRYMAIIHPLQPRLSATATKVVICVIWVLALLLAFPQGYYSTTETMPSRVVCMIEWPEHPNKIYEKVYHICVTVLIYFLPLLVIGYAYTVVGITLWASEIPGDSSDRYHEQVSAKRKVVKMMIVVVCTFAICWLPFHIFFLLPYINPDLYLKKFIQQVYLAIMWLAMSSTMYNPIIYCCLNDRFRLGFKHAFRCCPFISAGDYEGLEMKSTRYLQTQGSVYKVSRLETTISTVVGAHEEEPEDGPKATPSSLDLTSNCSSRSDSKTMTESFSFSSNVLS

With `COc1cc(C(=O)N2CCC(CCN3CCC(C(N)=O)(c4ccccc4)CC3)(c3ccc(Cl)c(Cl)c3)C2)cc(OC)c1OC` (single isomer, unassigned; (+)) [Example 20, (+)-1-[2-[3-(3,4-dichloro-phenyl)-1-(3,4,5-trimethoxy-benzoyl)-pyrrolidin-3-yl]-ethyl]-4-phenyl-piperidine-4-carboxylic acid amide] the “NK-2 RECEPTOR -SLOPE” value (NK2 receptor) was 1.00 (0.63-1.37) and the “NK-1 RECEPTOR -SLOPE” value (NK1 receptor) was 1.03 (0.78-1.28).
